In patent publication US20230393140A1, “BINDING ASSAYS INVOLVING A PLURALITY OF SYNTHETIC COMPOUNDS, TARGETS, AND COUNTER TARGETS” (SRI International, priority 2020, published 2023):
Numbered stars: 1 amine (or outer) side, 2 acyl side, 3 side chain; on linkers, the order of the positions; unused ones are H or OH. Square brackets hold non-standard residues; d marks the D form. Peptide text beside a SMILES is read from it. * marks the point of attachment. 5FAM = O=C1OC2(c3ccc(O)cc3Oc3cc(O)ccc32)c2ccc(C(=O)*)cc21; NHCH2C6H4(4-CH2CONH2) = NC(=O)Cc1ccc(CN*)cc1; X1 = O=C(Cc1ccc(CN[*:1])cc1)[*:2]

Target: TNFα (Homo sapiens, UniProt P01375)
Sequence (P01375 77-233 limits assumed): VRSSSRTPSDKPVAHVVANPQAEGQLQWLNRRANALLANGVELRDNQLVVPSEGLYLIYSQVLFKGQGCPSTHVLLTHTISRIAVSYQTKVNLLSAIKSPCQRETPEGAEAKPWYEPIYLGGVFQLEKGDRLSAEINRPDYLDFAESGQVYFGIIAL
Assay: MST binding affinity of resynthesized NNP hits to TNFα
Parameters: purchased R&D Systems, Inc. 210-TA/CF
Details: read-out: KD (nM) [95% conf. int], NNP2 library hit, target TNFα, one-site binding model
Method: Hit binding affinity to various targets were determined using Microscale Thermophoresis (MST). MST experiments were performed on a Monolith NT.115pico (NanoTemper Technologies GmbH, Munich, Germany). Measurements were performed at room temperature, in triplicate with incubation periods of 15, 30 and 45 minutes. […] Targets were labeled using Nanotemper Monolith 2nd Generation Protein Labeling Kits. RED-MALEIMIDE (Maleimide-647-dye) labeling kit was used for K-Ras and RED-NHS (NHS-647-dye) labeling kit was used for IL-6, IL-6R, TNFα and ASGPR. The buffer for the ASGPR contained 20 mM HEPES pH 7.4, 150 mM NaCl, 10 mM MgCl2, 2 mM CaCl2, 0.05% Pluronic F-127, and 1 mM DTT; for IL-6 contained 20 mM HEPES pH 7.4, 150 mM KCl, 10 mM MgCl2, and 0.1% Pluronic F-127; for the soluble IL-6 receptor 20 mM HEPES pH 7.4, 150 mM NaCl, 10 mM MgCl2, and 0.05% Tween-20; for K-Ras 20 mM HEPES pH 7.4, 150 mM NaCl, 10 mM MgCl2, 0.05% Tween-20 and 1 mM DTT; for TNFα 10 mM HEPES pH 7.4, 150 mM NaCl, 10 mM MgCl2, 0.05% Polysorbate-20. Triplicate data was analyzed using MO.AffinityAnalysis software (NanoTemper Technologies GmbH).

CC(C)C[C@H](NC(=O)[C@@H](CCC(=O)O)NC(=O)[C@H]1CCCN1C(=O)Cc1ccc(CNC(=O)[C@H](CC(C)C)NC(=O)[C@@H](CCCCN)NC(=O)[C@@H](Cc2ccccc2)NC(=O)Cc2ccc(CNC(=O)[C@@H](NC(=O)[C@@H](CCC(=O)O)NC(=O)[C@@H](Cc3ccccc3)NC(=O)Cc3ccc(CNC(=O)[C@H](CC(C)C)NC(=O)[C@@H](CCCNC(=N)N)NC(=O)[C@@H](CC(C)C)NC(=O)Cc4ccc(CNC(=O)[C@H](Cc5ccccc5)NC(=O)[C@@H](CC(C)C)NC(=O)[C@H](NC(=O)c5ccc6c(c5)C(=O)OC65c6ccc(O)cc6Oc6cc(O)ccc65)[C@H](C)O)cc4)cc3)C(C)C)cc2)cc1)C(=O)NCc1ccc(CC(=O)N2CCC[C@@H]2C(=O)N[C@H](CCC(=O)O)C(=O)N[C@@H](Cc2ccccc2)C(=O)NCc2ccc(CC(=O)N[C@H](Cc3c[nH]cn3)C(=O)N[C@H](CCC(=O)O)C(=O)N[C@@H](CC(C)C)C(=O)NCc3ccc(CC(=O)N4CCC[C@@H]4C(=O)N[C@H](CCCNC(=N)N)C(=O)N[C@@H](C)C(=O)NCc4ccc(CC(=O)N[C@H](Cc5c[nH]cn5)C(=O)N[C@H](Cc5ccc(O)cc5)C(=O)N[C@H](C(=O)NCc5ccc(CC(N)=O)cc5)C(C)C)cc4)cc3)cc2)cc1 [TNF-39-4] (5FAM-[dT][dL]F[X1][dL][dR]L[X1][dF][dE]V[X1][dF][dK]L[X1][dP][dE]L[X1][dP][dE]F[X1][dH][dE]L[X1][dP][dR]A[X1][dH][dY]V-{NHCH2C6H4(4-CH2CONH2)})
Kd: 28 nM

CC(C)C[C@H](NC(=O)[C@@H](CCCNC(=N)N)NC(=O)[C@@H](CC(C)C)NC(=O)Cc1ccc(CNC(=O)[C@H](CC(C)C)NC(=O)[C@H](NC(=O)[C@@H](CCCCN)NC(=O)c2ccc3c(c2)C(=O)OC32c3ccc(O)cc3Oc3cc(O)ccc32)C(C)C)cc1)C(=O)NCc1ccc(CC(=O)N[C@H](Cc2ccccc2)C(=O)N[C@H](CCC(=O)O)C(=O)N[C@H](C(=O)NCc2ccc(CC(=O)N[C@H](Cc3ccccc3)C(=O)N[C@H](CCCNC(=N)N)C(=O)N[C@@H](C)C(=O)NCc3ccc(CC(=O)N[C@H](Cc4ccc(O)cc4)C(=O)N[C@H](CCCCN)C(=O)N[C@@H](C)C(=O)NCc4ccc(CC(=O)N[C@H](CCC(=O)O)C(=O)N[C@H](CO)C(=O)N[C@H](C(=O)NCc5ccc(CC(=O)N6CCC[C@@H]6C(=O)N[C@@H](C(=O)NCC(=O)NCc6ccc(CC(=O)N7CCC[C@@H]7C(=O)N[C@H](CCCNC(=N)N)C(=O)N[C@@H](C)C(=O)NCc7ccc(CC(=O)N[C@H](Cc8ccccc8)C(=O)N[C@H](CCCCN)C(=O)NCC(=O)NCc8ccc(CC(N)=O)cc8)cc7)cc6)C(C)C)cc5)C(C)C)cc4)cc3)cc2)C(C)C)cc1 [TNF-39-5] (5FAM-[dK][dV]L[X1][dL][dR]L[X1][dF][dE]V[X1][dF][dR]A[X1][dY][dK]A[X1][dE][dS]V[X1][dP][dV]G[X1][dP][dR]A[X1][dF][dK]G-{NHCH2C6H4(4-CH2CONH2)})
Kd: 23 nM

CC(C)C[C@H](NC(=O)[C@@H](CCCNC(=N)N)NC(=O)[C@@H](CC(C)C)NC(=O)Cc1ccc(CNC(=O)[C@H](CC(C)C)NC(=O)[C@@H](CC(C)C)NC(=O)[C@@H](Cc2ccc(O)cc2)NC(=O)c2ccc3c(c2)C(=O)OC32c3ccc(O)cc3Oc3cc(O)ccc32)cc1)C(=O)NCc1ccc(CC(=O)N[C@H](Cc2ccccc2)C(=O)N[C@H](CCC(=O)O)C(=O)N[C@H](C(=O)NCc2ccc(CC(=O)N3CCC[C@@H]3C(=O)N[C@H](CCCNC(=N)N)C(=O)N[C@H](C(=O)NCc3ccc(CC(=O)N[C@H](Cc4c[nH]c5ccccc45)C(=O)N[C@H](CCCNC(=N)N)C(=O)N[C@H](C(=O)NCc4ccc(CC(=O)N[C@H](CCCNC(=N)N)C(=O)N[C@H](Cc5ccc(O)cc5)C(=O)N[C@@H](CC(C)C)C(=O)NCc5ccc(CC(=O)N[C@H](CCC(=O)O)C(=O)N[C@@H](C(=O)N[C@H](C(=O)NCc6ccc(CC(=O)N[C@@H](C(=O)N[C@H](Cc7c[nH]cn7)C(=O)N[C@@H](CC(C)C)C(=O)NCc7ccc(CC(=O)N[C@H](Cc8ccc(O)cc8)C(=O)N[C@H](CCCNC(=N)N)C(=O)N[C@@H](Cc8ccccc8)C(=O)NCc8ccc(CC(N)=O)cc8)cc7)[C@H](C)O)cc6)C(C)C)C(C)C)cc5)cc4)C(C)C)cc3)C(C)C)cc2)C(C)C)cc1 [TNF-39-6] (5FAM-[dY][dL]L[X1][dL][dR]L[X1][dF][dE]V[X1][dP][dR]V[X1][dW][dR]V[X1][dR][dY]L[X1][dE][dV]V[X1][dT][dH]L[X1][dY][dR]F-{NHCH2C6H4(4-CH2CONH2)})
Kd: 93 nM

CC(C)C[C@H](NC(=O)[C@@H](CCCCN)NC(=O)[C@@H](Cc1ccccc1)NC(=O)Cc1ccc(CNC(=O)[C@H](CC(C)C)NC(=O)[C@H](NC(=O)[C@@H](CCCNC(=N)N)NC(=O)Cc2ccc(CNC(=O)[C@H](CC(C)C)NC(=O)[C@@H](CCCNC(=N)N)NC(=O)[C@@H](CC(C)C)NC(=O)Cc3ccc(CNC(=O)[C@H](CC(C)C)NC(=O)[C@H](NC(=O)[C@@H](CCCCN)NC(=O)c4ccc5c(c4)C(=O)OC54c5ccc(O)cc5Oc5cc(O)ccc54)C(C)C)cc3)cc2)C(C)C)cc1)C(=O)NCc1ccc(CC(=O)N[C@H](C)C(=O)N[C@H](CCCCN)C(=O)N[C@@H](Cc2ccccc2)C(=O)NCc2ccc(CC(=O)N[C@H](Cc3ccccc3)C(=O)N[C@@H](C(=O)N[C@@H](C)C(=O)NCc3ccc(CC(=O)N4CCC[C@@H]4C(=O)NCC(=O)N[C@H](C(=O)NCc4ccc(CC(=O)N[C@H](CCCCN)C(=O)N[C@H](Cc5ccccc5)C(=O)N[C@@H](Cc5ccccc5)C(=O)NCc5ccc(CC(=O)N[C@H](C)C(=O)N[C@@H](C(=O)N[C@@H](CC(C)C)C(=O)NCc6ccc(CC(N)=O)cc6)C(C)C)cc5)cc4)C(C)C)cc3)[C@H](C)O)cc2)cc1 [TNF-39-7] (5FAM-[dK][dV]L[X1][dL][dR]L[X1][dR][dV]L[X1][dF][dK]L[X1][dA][dK]F[X1][dF][dT]A[X1][dP]GV[X1][dK][dF]F[X1][dA][dV]L-{NHCH2C6H4(4-CH2CONH2)})
Kd: 53 nM

CC(C)C[C@H](NC(=O)[C@@H](CCCNC(=N)N)NC(=O)[C@@H](Cc1c[nH]c2ccccc12)NC(=O)Cc1ccc(CNC(=O)[C@@H](NC(=O)[C@@H](CCC(=O)O)NC(=O)[C@@H](Cc2ccccc2)NC(=O)Cc2ccc(CNC(=O)[C@H](C)NC(=O)[C@@H](Cc3c[nH]cn3)NC(=O)[C@@H](Cc3c[nH]c4ccccc34)NC(=O)Cc3ccc(CNC(=O)[C@H](CC(C)C)NC(=O)[C@H](NC(=O)[C@@H](CCCCN)NC(=O)c4ccc5c(c4)C(=O)OC54c5ccc(O)cc5Oc5cc(O)ccc54)C(C)C)cc3)cc2)C(C)C)cc1)C(=O)NCc1ccc(CC(=O)N[C@H](Cc2ccc(O)cc2)C(=O)N[C@H](CCCCN)C(=O)N[C@@H](C)C(=O)NCc2ccc(CC(=O)N[C@H](CC(N)=O)C(=O)N[C@H](CCCNC(=N)N)C(=O)N[C@@H](Cc3ccccc3)C(=O)NCc3ccc(CC(=O)N4CCC[C@@H]4C(=O)N[C@@H](C(=O)NCC(=O)NCc4ccc(CC(=O)N5CCC[C@@H]5C(=O)N[C@H](CCCNC(=N)N)C(=O)N[C@@H](C)C(=O)NCc5ccc(CC(=O)N[C@H](C)C(=O)N[C@H](CCCCN)C(=O)NCC(=O)NCc6ccc(CC(N)=O)cc6)cc5)cc4)C(C)C)cc3)cc2)cc1 [TNF-39-8] (5FAM-[dK][dV]L[X1][dW][dH]A[X1][dF][dE]V[X1][dW][dR]L[X1][dY][dK]A[X1][dN][dR]F[X1][dP][dV]G[X1][dP][dR]A[X1][dA][dK]G-{NHCH2C6H4(4-CH2CONH2)})
Kd: 270 nM

CC(C)C[C@H](NC(=O)[C@@H](CCCNC(=N)N)NC(=O)CNC(=O)Cc1ccc(CNC(=O)[C@H](CC(C)C)NC(=O)[C@H](NC(=O)[C@@H](CCCCN)NC(=O)c2ccc3c(c2)C(=O)OC32c3ccc(O)cc3Oc3cc(O)ccc32)C(C)C)cc1)C(=O)NCc1ccc(CC(=O)N[C@H](CCCNC(=N)N)C(=O)N[C@@H](C(=O)N[C@@H](CC(C)C)C(=O)NCc2ccc(CC(=O)N[C@H](Cc3c[nH]c4ccccc34)C(=O)N[C@H](CCCNC(=N)N)C(=O)N[C@@H](CC(C)C)C(=O)NCc3ccc(CC(=O)N[C@H](Cc4c[nH]c5ccccc45)C(=O)N[C@H](CCCNC(=N)N)C(=O)N[C@H](C(=O)NCc4ccc(CC(=O)N[C@H](CO)C(=O)N[C@H](CO)C(=O)N[C@@H](Cc5ccccc5)C(=O)NCc5ccc(CC(=O)N[C@H](C)C(=O)N[C@H](CO)C(=O)N[C@@H](Cc6ccccc6)C(=O)NCc6ccc(CC(=O)N[C@H](Cc7c[nH]c8ccccc78)C(=O)N[C@H](CCCCN)C(=O)N[C@@H](CC(C)C)C(=O)NCc7ccc(CC(=O)N[C@H](Cc8ccc(O)cc8)C(=O)N[C@H](CCCNC(=N)N)C(=O)N[C@@H](Cc8ccccc8)C(=O)NCc8ccc(CC(N)=O)cc8)cc7)cc6)cc5)cc4)C(C)C)cc3)cc2)C(C)C)cc1 [TNF-39-9] (5FAM-[dK][dV]L[X1]G[dR]L[X1][dR][dV]L[X1][dW][dR]L[X1][dW][dR]V[X1][dS][dS]F[X1][dA][dS]F[X1][dW][dK]L[X1][dY][dR]F-{NHCH2C6H4(4-CH2CONH2)})
Kd: 150 nM
